Measurements published in patent US10028975B2, “Methods for treating ischemia-reperfusion injury” (Beth Israel Deaconess Medical Center, Inc., priority 2010, dated 2018).

Key:
[1] = test system: IgM deposition; experiment: IgM staining in intestine and lung by immunofluorescence; format: in vivo, mouse; details: I/R intestinal and lung samples, both tissues
Procedure: (§1) For immunofluorescence (IF) staining, formalin-fixed paraffin-embedded sections were blocked with 10% BSA-PBS at room temperature for 1 hour and incubated with FITC-labeled primary or secondary antibodies at room temperature for 1 hour. The slides were washed, and coverslips were mounted with Dako Fluorescent mounting medium and analyzed by confocal microscopy (Nikon Eclipse Ti, Nikon Instruments, Melville, N.Y.). FITC-labeled goat anti-mouse IgG (Santa Cruz, Calif., sc2010), FITC-labeled rat anti-mouse C3 (11H9) (Santa Cruz, Calif., sc-58926), FITC-labeled goat anti-mouse IgM (Southern Biotech, 1021-02), and FITC-labeled rat anti-mouse Ly-6G and LY-6C (Clone R6B-8C5) (BD Pharmingen) were the antibodies used in these studies.
Reperfusion after ischemia induced alteration of the endothelial membrane and allows neoantigen expression. Circulating natural IgM antibodies bind to these antigens and may trigger complement-mediated injury (Williams et al., J Applied Physiol. 86: 938-942, 1999). Therefore, we performed IgM staining by IF, as described above. There was increased IgM staining in I/R intestinal and lung samples when compared to the sham tissues. […] Unlike the differences detected for natural IgM staining, we were only able to detect minimal IgG staining in all groups (data not shown).

[2] = test system: complement component 3 protein (C3) deposition; experiment: C3 deposition in intestine and lung by IHC and IF; format: in vivo, mouse; details: I/R mice treated with Syk inhibitor
From the text: (§2) In order to perform immunohistochemistry (IHC) staining, formalin-fixed paraffin sections of intestine and lung were subjected to rehydration and antigen retrieval using a standard protocol. For IHC studies, the following reagents were used: rabbit anti-mouse Syk (N-19) (Santa Cruz, Calif.), rabbit anti-mouse p-Syk (phospho Y323) (Abeam, Inc.), and rabbit anti-mouse C3 (B-9) (Santa Cruz, Calif.).
as §1
It has been reported that I/R activates the complement system, as indicated by C3 deposition on the intestine (Williams et al., supra). […]

[3] = target: T1, phosphorylated Syk (p-Syk) (Mus musculus, UniProt P48025); experiment: p-Syk staining in intestine and lung by IHC and IF; format: in vivo; details: I/R mice group, Syk inhibitor treatment, 3-hour reperfusion
T1 construct: formalin-fixed paraffin sections of intestine and lung were subjected to rehydration and antigen retrieval; from tissue; host or cells: intestine and lung of C57BL/6J mice
T1 sequence (P48025 whole entry, the tested form may be a part): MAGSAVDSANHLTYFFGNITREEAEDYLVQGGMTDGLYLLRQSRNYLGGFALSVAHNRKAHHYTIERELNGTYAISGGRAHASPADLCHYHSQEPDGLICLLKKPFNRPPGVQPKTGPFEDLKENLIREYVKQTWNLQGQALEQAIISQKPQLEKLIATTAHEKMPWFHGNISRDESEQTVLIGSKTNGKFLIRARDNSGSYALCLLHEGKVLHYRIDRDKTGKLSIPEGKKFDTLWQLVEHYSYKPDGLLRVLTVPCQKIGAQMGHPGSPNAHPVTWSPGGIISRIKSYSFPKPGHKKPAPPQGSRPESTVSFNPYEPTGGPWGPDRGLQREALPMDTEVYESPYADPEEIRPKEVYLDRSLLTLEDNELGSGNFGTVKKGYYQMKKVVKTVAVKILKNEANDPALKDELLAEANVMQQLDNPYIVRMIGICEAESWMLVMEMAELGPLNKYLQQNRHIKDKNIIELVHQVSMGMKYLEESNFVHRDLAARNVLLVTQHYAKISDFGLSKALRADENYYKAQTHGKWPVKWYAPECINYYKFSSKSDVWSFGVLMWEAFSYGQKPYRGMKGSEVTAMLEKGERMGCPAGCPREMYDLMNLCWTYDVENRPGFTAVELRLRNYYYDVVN
From the text: as §2, §1
Because the Syk inhibitor suppresses the expression of phosphorylated Syk (p-Syk), the active form of Syk, we performed p-Syk staining by using IHC and IF. We observed staining in I/R group mice. […] After a 3-hour reperfusion, we detected only slight p-Syk staining.

[4] = test system: neutrophil infiltration; experiment: Neutrophil infiltration (GR-1 staining) in intestine and lung; format: in vivo, mouse
Procedure: as §1
Therefore, we evaluated the presence of neutrophils in the intestine and lung after sham and I/R procedures in mice treated with Syk inhibitor. Mice subjected to I/R had more prominent GR-1 staining within the intestinal tissue after 3-hour reperfusion when compared to the sham-operated mice group.

[5] = test system: C57BL/6J mice subjected to mesenteric I/R (intestine); experiment: Intestinal mucosal injury scoring (H&E) after mesenteric ischemia-reperfusion; format: in vivo, mouse; details: mean±SEM; for intestinal injury score (mucosal injury score): I/R mice, 30 min ischemia, 3 h reperfusion, scale 0-6
From the text: (§3) Mice were randomly assigned to the following experimental groups: (a) mouse chow+sham procedures, (b) mouse chow+I/R procedures, (c) control chow+sham procedures, (d) control chow+I/R procedures, (e) R788 (3 g/kg)+sham procedures, (f) R788 (3 g/kg)+I/R procedures, and (g) R788 (5 g/kg)+I/R procedures […].
(§4) Syk inhibitor R788 was provided by Rigel Pharmaceuticals (South San Francisco, Calif.). Mice were fed food containing R788 (3 g/kg of chow, n=6 or 5 g/kg of chow, n=3), control chow (n=6), or regular chow (n=6). Food was prepared by Research Diets, Inc. (New Brunswick, N.J.). C57BL/6J mice were fed the R788-containing chow ad libitum for 6 days prior to experimentation in order to determine the effect of R788 on I/R injury.
Animals underwent I/R as had been described previously (Chiu et al., Arch Surg. 101: 478-483, 1970 and Fleming et al., J Immunol. 169: 2126-2133, 2002). Briefly, we performed a midline laparotomy before a 30-minute equilibration period. […] A small non-traumatic microvascular clip delivering approximately 85 grams of pressure was then applied for 30 minutes. The clip was removed after this ischemia phase, and the intestines were allowed to reperfuse for 3 hours. Sham-operated mice underwent the above-described surgical intervention without artery occlusion. The laparotomy incisions were sutured with 4.0 SOFSILK™, the mice resuscitated with 1.0 mL pre-warmed sterile phosphate-buffered saline (PBS) subcutaneously, and monitored during the reperfusion period. […]
For histological analysis, 20-cm segments of small intestine specimens were fixed in 10% buffered formalin phosphate immediately after euthanasia. […] To summarize, a normal villus was assigned a score of 0; villi with tip distortion were scored as 1; villi without goblet cells and with Guggenheims' spaces were scored as 2; villi with patchy disruption of the epithelial cells were scored as 3; villi with exposed but intact lamina propria and sloughing of epithelial cell were scored as 4; villi with exuding lamina propria were scored as 5; and villi with hemorrhage or denudation were scored as 6. […]

[6] = target: T2, Syk (Mus musculus, UniProt P48025); experiment: Syk staining in intestine and lung by immunohistochemistry; format: in vivo; details: pre-treatment with Syk inhibitor, IHC
T2 construct: formalin-fixed paraffin sections of intestine and lung were subjected to rehydration and antigen retrieval; from tissue; host or cells: intestine and lung of C57BL/6J mice
T2 sequence (P48025 whole entry): as the sequence (P48025 whole entry, the tested form may be a part) above
Procedure: as §2
Syk expression in the intestine and lung were evaluated by IHC. Syk staining in intestines and lungs were more prominent in I/R groups than in sham-operated groups.

[7] = test system: C57BL/6J mice subjected to mesenteric I/R (lung); experiment: Remote lung injury scoring (H&E) after mesenteric ischemia-reperfusion; format: in vivo, mouse; details: mean±SEM; for total lung injury score: I/R mice, 3 h reperfusion, scale 0-18
From the text: as §3, §4
Animals underwent I/R as had been described previously (Chiu et al., Arch Surg. 101: 478-483, 1970 and Fleming et al., J Immunol. 169: 2126-2133, 2002). Briefly, we performed a midline laparotomy before a 30-minute equilibration period. […] The laparotomy incisions were sutured with 4.0 SOFSILK™, the mice resuscitated with 1.0 mL pre-warmed sterile phosphate-buffered saline (PBS) subcutaneously, and monitored during the reperfusion period. […]
Alveolar and periluminal injury scores in each lung section were calculated based on Cooke's method (Cooke et al., Blood 8: 3230-3239, 1996). For each lung section, we examined 10-20 fields at high power field magnification (400×) and scored for alveolar infiltration on a 3-tiered scale. The calculation of alveolar scores was as follows: when no infiltrate was present, a score of 0 was given; when the infiltrate could be visualized easily only at 400×, a score of 1 was assigned; when infiltrates were readily visible, a score of 2 was assigned; and the score for consolidation was 3. Similarly, each section was scored for periluminal damage (airway or blood vessel) at 100×. […] Based on the overall involvement of the section, a severity score was calculated: the severity score for 0-25% involvement was 1; a severity score of 2 was assigned for 25-50% involvement; and the severity score for >50% involvement was 3. […]

[8] = test system: Syk; experiment: Syk expression by Western blot in T cells transfected with Syk siRNA; format: cell-based; details: T cells electroporated with siRNA at 0.5, 0.7, 0.9, 1.5 and 2 μM per million, approximately 72 hours
Procedure: Different concentrations (0.5, 0.7, 0.9, 1.5, and 2 μM per million) of T cells were transfected by electroporation using Amexa Nucleofector solution. Briefly, a total of 5×10^6 T cells were re-suspended in 100 μl Nucleofector solution (Lonza Walkerrsville Inc.; Walkersville, Md.). The desired amount of Syk siRNA was mixed in with the T cell/nucleofector suspension and electrporated. The transfected cells were plated in RPMI-1640 medium without any antibiotic and incubated for approximately 72 hours. After proper incubation, transfected T cells were lysed in RIPA buffer, and Western blotting was performed with an antibody against total Syk (Clone 4D10; Santa Cruz Biotechnology, Inc.; Santa Cruz, Calif.).

[9] = sham-operated mice, Syk inhibitor (R788 3 g/kg chow)

In the case of `COc1cc(Nc2ncc(F)c(Nc3ccc4c(n3)N(COP(=O)(O)O)C(=O)C(C)(C)O4)n2)cc(OC)c1OC` [R788], the “IgM deposition (immunofluorescence staining)” value [1] is reported as “reduced IgM deposition”, the “C3 staining in the intestinal mucosa” value ([2]; intestine) is reported as “attenuated C3 staining” and the “C3 deposition in the lungs” value ([2]; lung) is reported as “limited C3 deposition”. The “p-Syk staining in the lung and intestine” value [3] was “eliminated p-Syk staining”, the “I/R-induced neutrophil infiltration (GR-1 staining)” value ([4]; intestinal tissue, 3-hour reperfusion) was “prevented I/R-induced neutrophil infiltration” and the “neutrophil infiltration in the lung tissues” value ([4]; lung tissue, I/R mice) was “decreased infiltration”. The “intestinal injury score (mucosal injury score)” value ([5]; 3 g/kg R788 in chow for 6 days) was 0.58±0.08, the “intestinal injury score (mucosal injury score)” value ([5]; 5 g/kg R788 in chow for 6 days) was 0.92±0.14 and the intestinal injury score [5, 9] was 0.42±+0.33. The “Syk staining in either the intestine or the lung” value [6] was “did not cause any changes”, the “total lung injury score” value ([7]; 3 g/kg R788 in chow for 6 days) was 1.36±0.18 and the “total lung injury score” value ([7]; 5 g/kg R788 in chow for 6 days) was 1.1±0.46. The “average pulmonary damage score” value [7, 9] was 1.03±0.26.
“SEQ ID NOs: 1 and 2: Syk-specific siRNA pair: sense GGAUAAGAACAUCAUAGAAtt, antisense UUCUAUGAUGUUCUUAUCCtt (sense GGAUAAGAACAUCAUAGAATT; antisense UUCUAUGAUGUUCUUAUCCTT; chemistry not given here)” was tested, and the “Syk expression (Western blot)” value [8] was “can be inhibited”.
In the case of “SEQ ID NOs: 3 and 4: Syk-specific siRNA pair: sense CGCUCUUAAAGAUGAGUUAtt, antisense UAACUCAUCUUUAAGAGCGgg (sense CGCUCUUAAAGAUGAGUUATT; antisense UAACUCAUCUUUAAGAGCGGG; chemistry not given here)”, the “Syk expression (Western blot)” value [8] is reported as “can be inhibited”.
For “SEQ ID NOs: 5 and 6: Syk-specific siRNA pair: sense GCACUAUCGCAUCGACAAAtt, antisense UUUGUCGAUGCGAUAGUGCag (sense GCACUAUCGCAUCGACAAATT; antisense UUUGUCGAUGCGAUAGUGCAG; chemistry not given here)”, the “Syk expression (Western blot)” value [8] was “can be inhibited”.
